In patent publication US20160363584A1, “SYSTEMS AND METHODS FOR STUDYING INFLAMMATION-DRUG INTERACTIONS” (Hepregen Corporation, priority 2012, published 2016):
Read-outs that look alike come from different tables or passages of the source.

Assays:
[1] = test system: human Kupffer cell-treated HepatoPac™ model; assay: Chronic toxicity platform, nine day treatment, cellular ATP content; type: cell-based; details: for Toxicity in the presence of LPS-stimulated Kupffer cells: 50 ng/ml LPS; for Toxicity following nine days of compound dosing: all treatment conditions (HepatoPac or Kupffer cell-treated, +/- LPS)
Experimental: Chronic toxicity of various compounds suspected to be immunoreactive was evaluated with the human Kupffer cell-treated HepatoPac™ model (hepatocyte:Kupffer cell ratio of 1:0.4). Following a nine day treatment, compound toxicity was assessed as a function of cellular ATP content. TVX was used as a positive control. […] On day 7, cryopreserved unmatched Kupffer cells were added to the cultures. The cultures were dosed with compounds on culture Day 8 (hereby referred to as Dosing Day 0). On Dosing Day 1, LPS was added to the culture media at a final concentration of 50 ng/ml. On Dosing Day 3, 10 μl of supernatant was removed from cultures for urea analysis and replaced with an additional dose of the test compound. Similarly, supernatant was collected and cultures were re-dosed on Dosing Days 5 and 7. On Dosing Day 9, supernatant was collected and the cellular ATP content of the cultures was assessed (Promega Cell Titer Glo). Urea secretion of hepatocytes was quantified for the time-points of Dosing Day […], 5, 7, and 9 (data not shown).

mouse = details: cited from earlier work; for Effect on TVX/LPS toxic response: in vivo mouse model, Shaw et al.
[2] = test system: human Kupffer-HepatoPac™ cultures; type: cell-based
Experimental: Cryopreserved human hepatocytes, cryopreserved human Kupffer cells and 3T3 J2 mouse fibroblasts were used in the manufacturing of the co-culture platform. Cryopreserved hepatocyte vials were thawed in a 37° C. water bath for 90-120 seconds followed by dilution in 50 mL of pre-warmed percoll-based hepatocyte density sedimentation medium (p=1.06). The cell suspension was spun at 50×g for 5 minutes. The supernatant was discarded, cells were resuspended in hepatocyte culture media (HCM) (Hepregen Corporation, Medford, Mass.) and viability was assessed using trypan blue exclusion (typically 80-95%). Liver-derived non-parenchymal cells, as judged by their size (˜10 μm in diameter) and morphology (non-polygonal), were consistently found to be less than 1% in these preparations. […] Kupffer cells were gently rocked into suspension and evaluated for viability via Trypan Blue exclusion. […]
Cytotoxicity was assessed by evaluation of cellular ATP content while hepatocyte metabolic competence was assessed by urea production. […] The reaction is based on the acid catalyzed condensation of urea with diacetylmonoxime in the presence of thiosemicarbazide to yield a red purple chromogen that is read spectrophotometrically. The cellular ATP content was measured in cell lysates using the Cell Titer-Glo luminescent kit from Promega (Madison, Wis.). […]

[3] = test system: Human HepatoMune™ co-cultures; assay: cells
Experimental: Hepatocytes were seeded on micropatterned collagen plates on Day 0. On Day 1, 3T3 fibroblasts were added to the cultures. Human HepatoPac® co-cultures were allowed to stabilize functionally for 7 days in serum-supplemented medium. Human Kupffer cells (from unmatched donors) were seeded onto the hepatocyte cocultures on Day 7 of culture at a hepatocyte to Kupffer cell ratio of 10:4. […] Cell lysates from each treatment group were collected on days 11 and 14 of culture for assessment of drug-induced effects on cytotoxicity.

[4] = test system: rat Kupffer-HepatoPac™ cultures; type: cell-based
Experimental: Cytotoxicity was assessed by evaluation of cellular ATP content while hepatocyte metabolic competence was assessed by urea production. Production of urea, a liver-specific function, was assayed in culture media using the Stanbio kit according to manufacturer's directions. The reaction is based on the acid catalyzed condensation of urea with diacetylmonoxime in the presence of thiosemicarbazide to yield a red purple chromogen that is read spectrophotometrically. The cellular ATP content was measured in cell lysates using the Cell Titer-Glo luminescent kit from Promega (Madison, Wis.).
HepatoPac™ co-cultures were first allowed to stabilize functionally in serum-supplemented media for a 7-day period. Species-matched Kupffer cells were added to human and rat HepatoPac™ at multiple ratios (to mimic both the normal and inflamed state of the liver). To mimic the physiological state, human and rate Kupffer cells were added at hepatocyte:Kupffer cell ratios of 1:0.1 and 1:0.2, respectively. To mimic the inflamed state human Kupffer cells (at a ratio of 1:0.4 hepatocytes:Kupffer cells) or rat Kupffer cells (at a ratio of 1:0.5 hepatocytes:Kupffer cells) were then added to the cultures. On day 8 of culture, the cultures were treated with increasing concentrations of either Trovafloxacin or Levofloxacin (0-400 μM) in serum-free media. 24 hrs later, the cultures were stimulated with 50 ng/mL LPS. […]

TNF-α = TNF-α secretion in TVX/LPS-treated rat cultures with pentoxifylline; type: cell-based; details: 5 mM pentoxifylline
Experimental: Cultures were treated with Trovafloxacin and 5 mM Pentoxifylline for 72 hours. After 24 hours of dosing, Kupffer cells were activated with 50 ng/ml of LPS.

[5] = test system: HepatoPac™-Kupffer cell co-cultures; assay: IL-6 secretion after cytokine exposure of HepatoPac-Kupffer cell co-cultures; type: cell-based, human; details: 2 or 4 day treatment
Experimental: (§1) Cultures received 2 or 4 day treatment with IL-2, IL-1B, TNF-α, or IL-6 in serum-free media after which cytokine levels were assayed in their supernatants, Cyp3A4 activity was determined using the P450-Glo Assay (Promega), total ATP was measured (Promega Cell-Titer Glo) and RNA was extracted (Qiagen Rneasy).
Cultures were exposed to IL-2, IL-1B and TNF-α and secretion of IL-6 into the culture supernatant was measured.

Experimental for CYP3A4: as §1
Standard human HepatoPac™ and Kupffer cell-treated HepatoPac™ (hepatocyte:Kupffer cell ratio of 1:0.4) cultures were treated with the inflammatory cytokine IL-1B for 4 days. Sensitivity to IL-1B was measured as a function of Cyp3A4 activity repression. Following 4 days of IL-1B treatment, cytokines were removed and cultures were allowed to recover for 6 days.

N[C@@H]1[C@H]2CN(c3nc4c(cc3F)c(=O)c(C(=O)O)cn4-c3ccc(F)cc3F)C[C@@H]12 [TVX, trovafloxacin]
Toxicity in the presence of LPS-stimulated Kupffer cells ([1]; 9-day treatment): increased toxicity | Toxicity following nine days of compound dosing [1]: toxicity in all treatment conditions was observed | Toxicity under LPS-induced inflammatory stress (mouse; mouse, in vivo): toxic | TVX toxicity on addition of TNF-α [2]: potentiates TVX toxicity

CN(C)CCCN1c2ccccc2Sc2ccc(Cl)cc21 [chlorpromazine]
IC50 ([3]; read-out: IC50 (concentration at which 50% of the cells are dead), absence of LPS): 29 µM | IC50 ([3]; read-out: IC50 (concentration at which 50% of the cells are dead), presence of 50 ng/ml LPS): 17 µM

O=C(O)Cc1ccccc1Nc1c(Cl)cccc1Cl [diclofenac]
LPS-mediated toxicity after 3-day treatment ([1]; 3-day treatment (data not shown)): did not result in increased LPS-mediated toxicity | Toxicity in the presence of LPS-stimulated Kupffer cells ([1]; 9-day treatment): increased toxicity

CC(=O)N1CCN(c2ccc(OCC3COC(Cn4ccnc4)(c4ccc(Cl)cc4Cl)O3)cc2)CC1 (stereo not drawn) [ketoconazole]
Difference in TC50 between treatment groups ([1]; 9-day treatment): no significant difference | Toxicity following nine days of compound dosing [1]: toxicity in all treatment conditions was observed

C[C@H]1COc2c(N3CCN(C)CC3)c(F)cc3c(=O)c(C(=O)O)cn1c23 [levofloxacin]
Toxicity (cellular ATP content) [4]: not toxic

CC(=O)CCCCn1c(=O)c2c(ncn2C)n(C)c1=O [pentoxifylline]
Effect on TVX/LPS-induced HepatoPac toxicity ([4]; 5 mM pentoxifylline, 72 hours, 50 ng/ml LPS after 24 hours): significantly decreased | Effect on TNF-α secretion (TNF-α): significantly decreased | Effect on TVX/LPS toxic response (mouse): toxicity abrogation

IL-1B: inflammatory cytokine
IL-6 secretion into the culture supernatant [5]: causes IL-6 release | CYP3A4 expression (CYP3A4): Repression of CYP3A4 expression | Cyp3A4 activity (CYP3A4): dose-dependent and Kupffer cell-enhanced repression | Time Cyp3A4 activity remained repressed after removal of IL-1B (CYP3A4; human, 96 h): 4 days

IL-6: cytokine
Cyp3A4 activity (CYP3A4): maintains repression

TNF-α
IL-6 secretion into the culture supernatant [5]: no effect

etanercept
Effect on TVX/LPS toxic response (mouse): toxicity abrogation
